# “And” between values parts separate entries of the source, which are not always exact repeats. Identical values can stand only once. Like-named read-outs stand apart in the source and are kept apart here.
# Experiments:
# D1 dopamine receptor = D1 dopamine receptor (Homo sapiens, UniProt P21728); conditions: literature and own data
# Method: (§1) These concentrations were tested in cell lines expressing select human cloned dopamine receptors (D2S, D3).
# D5 dopamine receptor = D5 dopamine receptor (Homo sapiens, UniProt P21918); conditions: literature and own data
# D5 dopamine receptor, sequence (P21918 whole entry): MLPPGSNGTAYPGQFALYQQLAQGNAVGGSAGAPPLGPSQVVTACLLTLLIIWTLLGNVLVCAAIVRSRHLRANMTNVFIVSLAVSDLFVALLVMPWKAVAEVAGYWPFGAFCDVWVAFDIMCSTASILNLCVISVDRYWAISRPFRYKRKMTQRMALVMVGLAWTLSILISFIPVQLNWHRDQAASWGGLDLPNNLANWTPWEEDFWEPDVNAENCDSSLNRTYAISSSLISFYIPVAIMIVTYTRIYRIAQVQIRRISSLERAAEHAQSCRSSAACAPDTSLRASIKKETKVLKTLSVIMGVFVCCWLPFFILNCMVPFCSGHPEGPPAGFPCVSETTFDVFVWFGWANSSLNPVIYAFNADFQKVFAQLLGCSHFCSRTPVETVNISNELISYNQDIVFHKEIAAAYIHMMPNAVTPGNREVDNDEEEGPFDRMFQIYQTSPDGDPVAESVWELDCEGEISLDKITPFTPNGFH
# Method: as §1
# rats [1] = tested on: rats
# Method: 3.3—Toxicology Studies. […] Following this study, 3- and 6-month repeat dose toxicology studies were completed at doses of 30, 100, and 300 mg/kg.
# minipigs [2] = tested on: minipigs
# in vivo = conditions: both, minipig
# Method: (§3) The 3- and 6-month repeat dose studies have now been completed at the 7.5, 25 and 50 mg/kg dose levels and the 9-month repeat dose study is ongoing.
# healthy adult volunteers [3] = tested on: healthy adult volunteers
# Method: (§4) The first panel was administered a single IR dose of 50 mg, followed 48 hours later by 4½ days of multiple IR dosing (twice daily) at 50 mg Q12 hours. The second panel was administered a single IR dose of 100 mg, followed 48 hours later by 4½ days of multiple IR dosing (twice daily) at 100 mg Q12 hours. Safety observations included vital signs, physical examination, clinical laboratory tests, ECGs, and adverse event reporting. Blood samples were collected pre-dose on Day 1 and serially for 48 hours post-dose to assess the single-dose pharmacokinetics.
# healthy adult volunteers [4] = test: clinical; conditions: for CL/F / Ue / Fe / λZ: mean ± SD
# Method: (§2) Safety observations included vital signs, physical examination, clinical laboratory tests, ECGs, and adverse event reporting. Blood and urine samples were collected pre-dose and for 72 hours post-dose to assess the pharmacokinetics.
# clinical [5] = conditions: human, blood, oral
# Method: as §2
# [6] = tested on: non-naïve male beagle dogs
# Method: Doses were administered orally by gavage and clinical observations were taken continuously following dosing: hourly for the first four hours, and then twice daily cage-side observations for the duration of the inter-dose or post-dose interval. Observations were made of clinical signs, mortality, injury and availability of food and water. Animals were fasted for 24 hr prior to dosing. Dogs in each group were exposed to only one drug, or the combination; each dose was administered only once, with a subsequent dose administered after a recovery period of 4 days.
# clinical [7] = conditions: human, oral, Fasted; for Cmax: mean ± SD; for Tmax: median
# Method: as §4
# minipigs [8] = conditions: both, minipig, in vivo, 14 days
# Method: as §3
# rats [9] = conditions: 6-month study, any dose level
# minipigs [10] = conditions: past month 7, any dose level
# [11] = biological target: human cloned dopamine receptors (D3) (Homo sapiens, UniProt P35462); test: biochemical
# human cloned dopamine receptors (D3), sequence (P35462 whole entry): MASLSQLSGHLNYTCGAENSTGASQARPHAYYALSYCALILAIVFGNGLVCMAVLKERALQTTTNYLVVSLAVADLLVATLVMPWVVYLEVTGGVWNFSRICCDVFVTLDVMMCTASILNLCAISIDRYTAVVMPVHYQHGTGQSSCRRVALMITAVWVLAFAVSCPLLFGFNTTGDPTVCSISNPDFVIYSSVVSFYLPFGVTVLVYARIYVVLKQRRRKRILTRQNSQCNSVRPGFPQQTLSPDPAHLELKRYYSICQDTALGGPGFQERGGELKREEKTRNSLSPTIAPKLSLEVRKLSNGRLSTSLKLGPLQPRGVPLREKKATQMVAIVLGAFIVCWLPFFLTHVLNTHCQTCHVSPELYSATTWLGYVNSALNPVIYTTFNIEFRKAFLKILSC
# Method: as §1
# D2 dopamine receptor = test: D2 binding affinity from journal publications (Schneider & Mierau 1987; Wong & Shrikhande 2003); conditions: range over the literature sources
# minipigs [12] = conditions: 6-month study, any dose level
# [13] = CL002, 50 mg Q12H (Day 1), Fasted, mean ± SD
# [14] = CL002, 50 mg Q12H (Day 7), Fasted, mean ± SD
# [15] = CL002, 100 mg Q12H (Day 1), Fasted, mean ± SD
# [16] = CL002, 100 mg Q12H (Day 7), Fasted, mean ± SD
# [17] = Day 1, 50 mg IR oral, fasted, mean ± SD
# [18] = Day 1, 100 mg IR oral, fasted, mean ± SD
# [19] = Day 7, 50 mg after Q12H Days 3-6, fasted, mean ± SD
# [20] = Day 7, 100 mg after Q12H Days 3-6, fasted, mean ± SD
# [21] = blood, 50 mg, CL002, 50 mg Q12H (Day 1)
# [22] = blood, 50 mg, CL002, 50 mg Q12H (Day 7)
# [23] = in vivo, 100 mg, CL002, 100 mg Q12H (Day 1)
# [24] = in vivo, 100 mg, CL002, 100 mg Q12H (Day 7)
# D1 dopamine receptor, sequence (P21728 whole entry): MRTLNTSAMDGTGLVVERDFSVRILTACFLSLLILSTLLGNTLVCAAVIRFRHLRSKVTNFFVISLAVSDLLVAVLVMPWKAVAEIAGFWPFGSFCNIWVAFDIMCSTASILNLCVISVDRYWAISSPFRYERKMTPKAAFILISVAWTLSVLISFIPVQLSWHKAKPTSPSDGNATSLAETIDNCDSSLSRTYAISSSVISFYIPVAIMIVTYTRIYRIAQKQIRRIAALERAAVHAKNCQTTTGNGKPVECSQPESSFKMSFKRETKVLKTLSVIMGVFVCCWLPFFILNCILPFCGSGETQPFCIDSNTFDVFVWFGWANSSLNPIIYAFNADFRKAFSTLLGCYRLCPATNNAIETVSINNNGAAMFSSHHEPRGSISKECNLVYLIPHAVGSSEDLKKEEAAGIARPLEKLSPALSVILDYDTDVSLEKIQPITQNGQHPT
smiles,measurement,setting,value
"CCCN[C@@H]1CCc2nc(N)sc2C1 [RPPX, (6R)-4,5,6,7-tetrahydro-N6-propyl-2,6-benzothiazole-diamine]",interaction with D1 dopamine receptors,D1 dopamine receptor,no significant interaction
same,interaction with D5 dopamine receptors,D5 dopamine receptor,no significant interaction
same,"target organ toxicity by histopathology, 3-month study in rats","rats [1]; both, rat, in vivo, 300 mg/kg, 3 months",some target organ toxicity
same,"target organ toxicity by histopathology, 2-week study in rats","rats [1]; both, rat, in vivo, 14 days",No target organ toxicity
same,"mortality, 2-week study in rats",rats [1]; high dose of 500 mg/kg,caused mortality
same,mortality in repeat dose studies in minipigs,"minipigs [2]; 75 mg/kg level, by month 2",mortalities
same,"target organ toxicity by histopathology after 3 months, minipigs","minipigs [2]; both, minipig, in vivo, 3 months",No target organ toxicity
same,NOAEL at 14 days,in vivo,≥ 75 mg/kg
same,increase of AUC(0-12) from Day 1 to Day 7,healthy adult volunteers [3]; 50 mg Q12H,40%
same,increase of Cmax from Day 1 to Day 7,healthy adult volunteers [3]; 50 mg Q12H,37%
same,increase of AUC(0-12) from Day 1 to Day 7,healthy adult volunteers [3]; 100 mg Q12H,38%
same,increase of Cmax from Day 1 to Day 7,healthy adult volunteers [3]; 100 mg Q12H,24%
same,AUC (inf),healthy adult volunteers [3]; [13],"1,502 ± 280 h*ng/mL"
same,AUC(0-t),healthy adult volunteers [3]; [13],"1,463 ± 280 h*ng/mL"
same,AUC(0−12),healthy adult volunteers [3]; [13],"1,035 ± 121 h*ng/mL"
same,CL/F,healthy adult volunteers [3]; [13],571 ± 107 mL/h
same,AUC(0−12),healthy adult volunteers [3]; [14],"1,449 ± 221 h*ng/mL"
same,CL/F,healthy adult volunteers [3]; [14],585 ± 81.6 mL/h
same,AUC(0-t),healthy adult volunteers [3]; [15],"2,545 ± 497 h*ng/mL"
same,AUC(0−12),healthy adult volunteers [3]; [15],"1,776 ± 260 h*ng/mL"
same,CL/F,healthy adult volunteers [3]; [15],665 ± 107 mL/h
same,AUC(0−12),healthy adult volunteers [3]; [16],"2,465 ± 299 h*ng/mL"
same,CL/F,healthy adult volunteers [3]; [16],684 ± 76.1 mL/h
same,CL/F,healthy adult volunteers [3]; [17],571 ± 107 (6) mL/min
same,λz,healthy adult volunteers [3]; [17],0.1132 ± 0.0230 (6) h^−1
same,CL/F,healthy adult volunteers [3]; [18],665 ± 107 (6) mL/min
same,λz,healthy adult volunteers [3]; [18],0.1073 ± 0.0161 (6) h^−1
same,CL/F,healthy adult volunteers [3]; [19],585 ± 81.6 (6) mL/min
same,λz,healthy adult volunteers [3]; [19],0.1025 ± 0.0186 (6) h^−1
same,CL/F,healthy adult volunteers [3]; [20],684 ± 76.1 (6) mL/min
same,λz,healthy adult volunteers [3]; [20],0.0894 ± 0.0117 (6) h^−1
same,CL/F,"healthy adult volunteers [4]; CL001, 50 mg SD, Fasted",706 ± 182 mL/h
same,Ue,"healthy adult volunteers [4]; CL001, 50 mg SD, Fasted",35.3 ± 5.19 ^ mg
same,CL/F,"healthy adult volunteers [4]; CL001, 150 mg SD, Fasted",692 ± 183 mL/h
same,Ue,"healthy adult volunteers [4]; CL001, 150 mg SD, Fasted",60.5 ± 7.04 ^ mg
same,CL/F,"healthy adult volunteers [4]; CL001, 150 mg SD, second 150 mg line, Food printed Fasted",774 ± 165 mL/h
same,CL/F,"healthy adult volunteers [4]; CL001, 300 mg SD, Fasted",659 ± 260 mL/h
same,Ue,"healthy adult volunteers [4]; CL001, 300 mg SD, Fasted",198 ± 28.0 ^ mg
same,"Urinary excretion of unchanged drug, share of drug elimination",healthy adult volunteers [4]; across dose levels,approximately 70%
same,subjects reporting at least one non-serious adverse event,"healthy adult volunteers [4]; all 24 subjects (RPPX or placebo, blinded)",46%
same,subjects with mild dizziness (most frequent AE),"healthy adult volunteers [4]; all subjects (RPPX or placebo, blinded)",21%
same,CL/F,"healthy adult volunteers [4]; single oral 50 mg, fasted",706 ± 182 (6) mL/min
same,Fe,"healthy adult volunteers [4]; single oral 50 mg, fasted",70.7 ± 10.4 (6) % Dose
same,Ue,"healthy adult volunteers [4]; single oral 50 mg, fasted",35.3 ± 5.19 (6) mg
same,λZ,"healthy adult volunteers [4]; single oral 50 mg, fasted",0.1064 ± 0.0171 (6) h^−1
same,CL/F,"healthy adult volunteers [4]; single oral 150 mg, fasted",692 ± 183 (5) mL/min
same,Fe,"healthy adult volunteers [4]; single oral 150 mg, fasted",40.3 ± 4.69 (6) % Dose
same,Ue,"healthy adult volunteers [4]; single oral 150 mg, fasted",60.5 ± 7.04 (6) mg
same,λZ,"healthy adult volunteers [4]; single oral 150 mg, fasted",0.1001 ± 0.0087 (5) h^−1
same,CL/F,"healthy adult volunteers [4]; single oral 150 mg, fed",774 ± 165 (6) mL/min
same,λZ,"healthy adult volunteers [4]; single oral 150 mg, fed",0.1152 ± 0.0256 (6) h^−1
same,CL/F,"healthy adult volunteers [4]; single oral 300 mg, fasted",659 ± 260 (6) mL/min
same,Fe,"healthy adult volunteers [4]; single oral 300 mg, fasted",65.8 ± 9.33 (6) % Dose
same,Ue,"healthy adult volunteers [4]; single oral 300 mg, fasted",198 ± 28.0 (6) mg
same,λZ,"healthy adult volunteers [4]; single oral 300 mg, fasted",0.1151 ± 0.0309 (6) h^−1
same,Cmax,clinical [5]; 50 mg,125 ± 22 ng/mL
same,Tmax,clinical [5]; 50 mg,2.04 h
same,Cmax,clinical [5]; 150 mg,360 ± 60.4 ng/mL
same,Tmax,clinical [5]; 150 mg,2.04 h
same,Cmax,clinical [5]; 300 mg,781 ± 158 ng/mL
same,Tmax,clinical [5]; 300 mg,1.96 h
same,"human equivalence dose of the dog MTD, for a 70 kg human subject",[6]; from dog data,"about 3,000 mg"
same,observable effects in dogs,"[6]; male, beagle, dog, in vivo, 4 days",no observable effects
same,Cmax,clinical [7]; [21],139 ± 15.3 ng/mL
same,Cmax,clinical [7]; [22],191 ± 20.9 ng/mL
same,Tmax,clinical [7]; [21],1.83 h
same,Tmax,clinical [7]; [22],1.75 h
same,Cmax,clinical [7]; [23],248 ± 30.4 ng/mL
same,Cmax,clinical [7]; [24],306 ± 55 ng/mL
same,Tmax,clinical [7]; [23],1.92 h
same,Tmax,clinical [7]; [24],2 h
same,"target organ toxicity by histopathology, 2-week study in minipigs",minipigs [8],No target organ toxicity
same,"mortality between the 13-week and 26-week sacrifices, rats",rats [9],no mortalities at any dose level
same,"deaths / clinical observations, 9-month study in minipigs",minipigs [10],no deaths attributed to test article or significant clinical observations
same,IC50,[11],610 nM
same,"binding affinity of RPPX at the D2 receptor, times lower than PPX, literature",D2 dopamine receptor,10-20 times and 9-21 times
same,"mortality / clinical observations between the 13-week and 26-week sacrifices, minipigs",minipigs [12],no mortalities attributed to test article or significant clinical observations

# Reference: patent US20090054504A1 (KNOPP NEUROSCIENCES, INC., priority 2007, published 2009)
